How the values were obtained:
[1] = target: T1, α1 -adrenoceptors (Rattus norvegicus, UniProt P43140); assay: α1 antagonistic activity on the isolated anococcygeus muscle of the rat (antagonism of phenylephrine or methoxamine); conditions: agonist phenylephrine or methoxamine, Arunlakshana & Schild, read-out: pA2 values for α1 antagonistic activity (converted)
T1 construct: isolated anococcygeus muscle of the rat; from tissue; host or cells: rat anococcygeus muscle (male, 250-360 g)
T1 sequence (P43140 1-466): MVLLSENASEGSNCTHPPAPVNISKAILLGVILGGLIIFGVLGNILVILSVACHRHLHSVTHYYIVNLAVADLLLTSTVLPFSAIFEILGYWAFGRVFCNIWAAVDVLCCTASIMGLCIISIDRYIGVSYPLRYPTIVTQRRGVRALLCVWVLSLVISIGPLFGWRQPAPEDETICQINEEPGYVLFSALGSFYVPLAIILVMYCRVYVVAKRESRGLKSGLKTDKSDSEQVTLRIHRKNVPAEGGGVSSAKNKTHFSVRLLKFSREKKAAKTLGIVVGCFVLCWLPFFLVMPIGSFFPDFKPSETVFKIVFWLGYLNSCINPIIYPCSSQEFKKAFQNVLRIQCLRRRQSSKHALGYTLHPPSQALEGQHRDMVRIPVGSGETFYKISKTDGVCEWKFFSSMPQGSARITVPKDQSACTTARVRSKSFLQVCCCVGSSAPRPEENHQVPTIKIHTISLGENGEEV
Description: The compounds of the invention generally antagonise the α2 -adrenoceptors to a much greater extent than the α1 -adrenoceptors. The α1 antagonistic activity can be evaluated by a number of different methods. One method involves assessing the activity on the isolated anococcygeus muscle of the rat. The method is based on that of Gillespie, Br.J.Pharmac., 1972, 45, 404-416. In the procedure male rats (250-360 g) are killed by a blow on the head and bled. The two anococcygeus muscles are removed from their position in the midline of the pelvic cavity, where they arise from the upper coccygeal vertebrae. The muscles are suspended in 5 ml organ baths in Krebs solution containing […] ascorbic acid, to prevent drug oxidation. The tissues are gassed with a 95% oxygen, 5% CO2 mixture and maintained at 37°. Longitudinal muscle contractions are recorded using isotonic transducers. Cumulative dose response curves are then obtained to phenylephrine or in some cases methoxamine, both agents being […] alpha adrenoceptor agonists. The concentration range of phenylephrine or methoxamine used is 0.02 to 0.8 μg.ml^-1. The agonist is then washed from the bath and the test drug added to the bathing medium at a concentration of 10^-6 M. After 30 min equilibration with the test drug a further agonist dose response curve is obtained. The washing, equilibration and agonists dosing procedures are then repeated using 10^-5 M and 10^-4 M solutions of the test drug. Estimates of the pA2 value for the test drug as an antagonist of phenylephrine or methoxamine were made from the agonist dose-ratios using the method of Arunlakshana & Schild, Br. J.Pharmac.Chemother., 1959, 14, 48-58.

[2] = target: T2, α2 -adrenoceptor (Rattus norvegicus, UniProt P22909); assay: α2-adrenoceptor antagonistic activity on the rat field stimulated vas deferens preparation (antagonism of clonidine); conditions: for α2 /α1 selectivity: antilog of (α2 pA2 -α1 pA2); for Kb: rat field stimulated vas deferens, agonist clonidine, Schild plot (Arunlakshana & Schild), read-out: pA2 for α2 -adrenoceptor antagonistic activity (converted)
T2 construct: from tissue; host or cells: rat vas deferens (desheathed, field stimulated)
T2 sequence (P22909 1-465): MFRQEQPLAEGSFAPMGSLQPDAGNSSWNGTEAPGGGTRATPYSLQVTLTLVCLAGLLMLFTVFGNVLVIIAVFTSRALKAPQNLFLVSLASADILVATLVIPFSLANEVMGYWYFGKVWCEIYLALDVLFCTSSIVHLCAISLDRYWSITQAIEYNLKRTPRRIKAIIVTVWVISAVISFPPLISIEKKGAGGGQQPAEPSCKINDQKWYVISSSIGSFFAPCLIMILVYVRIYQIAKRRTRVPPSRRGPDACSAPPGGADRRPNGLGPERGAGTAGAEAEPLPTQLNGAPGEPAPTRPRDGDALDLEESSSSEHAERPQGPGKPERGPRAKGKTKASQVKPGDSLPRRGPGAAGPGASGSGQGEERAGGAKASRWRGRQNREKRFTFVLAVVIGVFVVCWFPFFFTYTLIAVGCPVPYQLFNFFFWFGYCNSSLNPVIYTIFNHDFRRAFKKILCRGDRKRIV
Procedure: The compounds of the invention are tested for α2 -adrenoceptor antagonistic activity on the rat field stimulated vas deferens preparation using a modification of the metod of Drew, Eur. J. Pharmac., 1977, 42, 123-130. The procedure is described below.
Desheathed vasa deferentia from sexually mature rats were suspended in a 6 ml organ bath in Krebs solution at 37° and bubbled with 5% CO2 in oxygen. Platinum ring electrodes were positioned above and below the tissue for field stimulation, the stimulus parameters being 0.1 Hz 1 ms pulse width at supramaximal voltage. Twitch responses were recorded isotonically with a 0.5 g loading. Clonidine hydrochloride was used as the α-adrenoceptor agonist and cumulative concentration-response curves were constructed for the inhibition of twitch obtained with clonidine in the range 0.125 to 4 ng ml^-1. After washing out clonidine, the twitch response quickly recovered and an antagonist was then introduced into the Krebs reservoir. Clonidine concentration-response curves were repeated 90 min after introduction of the antagonist. The concentration of clonidine producing 50% inhibition of twitch before and after introduction of antagonist were obtained and the dose-ratio for clonidine was calculated. Various concentrations of the antagonists were used.
Chemother., 1959, 14, 48-58 and the values of pA2 and slope were calculated.

| Kb [1] [nM] | α2 /α1 selectivity [2] | Kb [2] [nM] | Compound |
| --- | --- | --- | --- |
| 4790 | 407 | 11.7 | CS(=O)(=O)NCCN([C@H]1CCN2CCc3ccccc3[C@H]2C1)S(C)(=O)=O (relative stereo) [Example 2, N-[(2β,11bα)-1,3,4,6,7,11b-Hexahydro-2H-benzo[a]quinolizin-2-yl]-N-(2-methanesulphonamidoethyl)methanesulphonamide] |
| 1580 | 309 | 5.13 | CCCS(=O)(=O)N(CCNS(C)(=O)=O)[C@H]1CCN2CCc3ccccc3[C@H]2C1 (relative stereo) [Example 12, N-((2β,11bα)-1,3,4,6,7,11b-Hexahydro-2H-benzo[a]quinolizine-2-yl)-N-(2-methanesulphonamidoethyl)-n-propanesulphonamide] |
| 631 | 83 | 7.59 | CS(=O)(=O)NCCN([C@H]1CCN2CCc3ccccc3[C@H]2C1)S(=O)(=O)c1ccccc1 (relative stereo) [Example 13, N-((2β,11bα)-1,3,4,6,7,11b-Hexahydro-2H-benzo[a]quinolizin-2-yl)-N-(2-methanesulphonamidoethyl)benzenesulphonamide] |
